Source: patent US20170066759A1, “AROMATIC 5-MEMBERED HETEROCYCLIC DERIVATIVE HAVING TRPV4-INHIBITING ACTIVITY” (Shionogi & Co., Ltd., priority 2012, published 2017)

What was measured:
Type in all cases: cell-based
[1] = molecular target: T1, human TRPV4 (hTRPV4/CHO cells) (Homo sapiens, UniProt Q9HBA0); test: Test Example 2: TRPV4 inhibitory activity (IC50 value), 4α-PDD stimulation, Fluo3 calcium fluorescence (FLIPR)
T1 construct: expressed in transfected cells; host or cells: CHO-K1
Description: TRPV4 Inhibitory Activity (IC50 Value)
(§1) For each compound, TRPV4 inhibitory activity was measured using cells.
(§2) (Method) The procedures of evaluating TRPV4 inhibitory activity of a compound are as follows.
(§3) (1) TRPV4 inhibitory activity was measured using CHO-K1 cells stably expressing human TRPV4 (hTRPV4/CHO cells).
(2) In the day before the experimental day, frozen cell were thawed and washed with the culture medium (MEM-α, 10% FBS, 4 mmol/L L-Glutamine, 50 unit Penicillin, 50 μg/mL Streptomycin). Then cells were suspended in the culture medium.
(3) The 384-well plates which hTRPV4/CHO cells were seeded at densities of 4000 cells/well in the culture medium and cultured in a CO2 incubator in the presence of 5% CO2 at 37° C. for 24 hours was used as assay plates.
(4) The assay plate was washed with assay buffer (Hanks, 20 mmol/L HEPES, 2.5 mmol/L probenecid, pH7.4), and the buffer were remained at 20 μL/well.
(5) 10 μl of dye loading buffer (9 μmol/L Fluo 3-AM, 0.09% Pluronic F-127, 1% BSA/assay buffer) was added to each well, then the assay plate was incubated in a CO2 incubator in the presence of 5% CO2 at 37° C. for one hour. (final conc.; 3 μmol/L Fluo3-AM).
(6) The assay plate was washed with the assay buffer, and the buffers were remained at 20 μL/well. Then the assay plate was incubated for 10 min at room temperature.
(7) 20 μL of diluted compound solution was added to each well of assay plate, and mixed with built-in Pipette and Mixer of the Fluorescence analysis system FLIPR 384 (Molecular devices).
(8) After incubation for 4 min, 25 μL of 4α-PDD solution were applied to each well of assay plate and mixed with the FLIPR TETRA. (final conc.; 600 nmol/L 4α-PDD)
(9) The fluorescent intensity was measured with FLIPR TETRA system for 7 min from the point of time addition the compound solution, at Ex 488 nm, Em 510-570 nm wavelength.
TRPV4 inhibitory activity (IC50 value) of a compound was calculated according to the following procedure.
(§4) (10) In the presence of the compound, the difference between maximal and minimal of fluorescent intensity value for 3 min from just before addition of 4α-PDD solution was calculated, and it was referred as Max-Min value. Max-Min value of the Ruthenium Red at 20 μM was defined as 100% inhibitory activity, Max-Min value in the absence of the compound was defined as 0% inhibitory activity. TRPV4 inhibitory activity of the compound was calculated by the following formula.
(§5) (1−(Max−Min value of the compound−100% inhibitory activity)/(0% inhibitory activity−100% inhibitory activity))×100
(11) Inhibitory activity was calculated at 10 points with twice serial dilution, in the final concentration of the compound from 3.85 μg/mL to 7.5 ng/mL, the IC50 value (nmol/L) was calculated by logistic approximation method.

[2] = molecular target: T1, human TRPV4 (hTRPV4/CHO cells); test: Test Example 4: TRPV4 inhibitory activity (Ki value), 4α-PDD stimulation, Fluo-3 calcium fluorescence (FDSS 3000); conditions: Test Example 4, 4α-PDD stimulation, read-out: Test 4 Ki
Description: TRPV4 Inhibitory Activity (Ki Value)
as §1, §2, §3
(2) Cells were subcultured using the MEM-α medium (SIGMA M4526: 500 ml), FBS (HyCloneSH30070.03: 10%), L-Glutamine 200 mmol/L (GIBCO: 4 mmol/L), P/S (nacalai tesque: 1%), G418 (nacalai tesque: 1 mg/mL).
(3) The 96-well plates which hTRPV4/CHO cells were seeded at densities of 2×10^4 cells/well in the culture medium in the day before the experimental day, and cultured in a CO2 incubator in the presence of 5% CO2 at 37° C. for 24 hours was used as assay plates.
(4) Cells were washed with assay buffer (Hank's Balanced Salt Solution 9.8 g, 1 mol/L HEPES (pH7.5), 250 mmol/L probenecid).
(5) Fluo-3, fluorescent dye for Ca influx assay was added to each well, then the assay plate was incubated in a CO2 incubator in the presence of 5% CO2 at 37° C. for one hour (final conc.; 5 μmol/L Fluo-3).
(6) The assay plate was washed with the assay buffer, and the buffer was remained at 30 μL/well. Then the assay plate was incubated for 10 min at 37° C.
(7) 20 μL of diluted compound solution was added to each well of assay plate, and mixed with built-in Pipette and Mixer of the fluorescence analysis system FDSS 3000 (Hamamatsu Photonics).
(8) 50 μL of 4α-PDD solution (concluding 0.1% Pluronic F-127) was applied to each well of assay plate and mixed.
(9) The fluorescent intensity was measured by FDSS 3000 for 8 min from the point of time addition the compound solution, at Ex 480 nm, Em 540 nm wavelength.
TRPV4 inhibitory activity (Ki value) of a compound was calculated according to the following procedure.
as §4, with “8” for “3”, “10” for “20”
as §5
(11) By the following formula, inhibitory activity was calculated at 10 points with three fold serial dilution, in the final concentration of the compound from 10 μmol/L to 0.5 nmol/L. The IC50 value was calculated by dose-response curve.
100−[(fluorescent intensity in the presence of the compound−fluorescent intensity of back ground)/(total fluorescent intensity−fluorescent intensity of back ground)]×100
(12) In the presence of the compound, activity of 4α-PDD was measured at 9 points with three fold serial dilution from 20 μmol/L. Activity of 4α-PDD was calculated by the following formula.
(Max−Min value of the each 4α-PDD concentration−0% activity)/(100% activity−0% activity))×100
(13) Effective activity was calculated in 4α-PDD the above. The EC50 value was calculated by dose-response curve.
(14) The Ki value of a compound was calculated by the following formula.
Ki=IC50 value/1+([A]/EC50)
[A]: Concentration of agonist (nmol/L)

[3] = molecular target: T1, human TRPV4 (hTRPV4/CHO cells); test: Test Example 1: TRPV4 inhibitory activity (IC50 value), 4α-PDD stimulation, Fluo4 calcium fluorescence (FLIPR TETRA); conditions: Test Example 1, 4α-PDD stimulation, read-out: Test 1 IC50
[4] = Test Example 2, 4α-PDD stimulation, read-out: Test 2 IC50

T1 sequence (Q9HBA0 whole entry): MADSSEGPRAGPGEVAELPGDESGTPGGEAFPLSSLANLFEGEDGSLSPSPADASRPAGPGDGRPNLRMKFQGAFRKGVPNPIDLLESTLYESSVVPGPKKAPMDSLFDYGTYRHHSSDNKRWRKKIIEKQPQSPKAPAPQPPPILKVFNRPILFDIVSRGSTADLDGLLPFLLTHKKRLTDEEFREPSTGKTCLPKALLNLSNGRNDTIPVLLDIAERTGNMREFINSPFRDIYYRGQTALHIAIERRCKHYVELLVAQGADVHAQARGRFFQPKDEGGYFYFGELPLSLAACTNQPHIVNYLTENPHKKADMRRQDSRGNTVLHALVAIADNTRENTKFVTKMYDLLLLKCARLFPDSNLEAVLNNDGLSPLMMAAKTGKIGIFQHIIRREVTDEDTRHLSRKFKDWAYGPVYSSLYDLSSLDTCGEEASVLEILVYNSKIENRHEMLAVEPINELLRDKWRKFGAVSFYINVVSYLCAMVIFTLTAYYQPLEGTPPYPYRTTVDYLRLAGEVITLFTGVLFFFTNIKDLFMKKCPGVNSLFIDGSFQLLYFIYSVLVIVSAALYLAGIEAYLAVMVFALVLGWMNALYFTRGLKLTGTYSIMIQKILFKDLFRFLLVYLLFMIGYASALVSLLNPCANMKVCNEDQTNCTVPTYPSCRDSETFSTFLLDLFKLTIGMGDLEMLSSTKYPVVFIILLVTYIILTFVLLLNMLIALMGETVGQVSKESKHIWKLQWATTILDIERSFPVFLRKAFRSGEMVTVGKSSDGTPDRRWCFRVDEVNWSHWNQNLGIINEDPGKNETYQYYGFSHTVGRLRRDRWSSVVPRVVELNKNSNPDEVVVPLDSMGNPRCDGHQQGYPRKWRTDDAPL

IC50 [1, 4] [nM] | Structure (SMILES) | also measured
1000 to 8000 | C/C(=N\Nc1nc(-c2cccs2)cs1)c1ccc(Cl)c(Cl)c1 [II-18] | 
100 to 1000 | COc1ccc(/C(C)=N/Nc2nc(-c3sc(C)nc3C)cs2)cc1 [II-19] | 
100 to 1000 | Cc1cccc(Nc2nc(-c3sc(N)nc3C)cs2)c1 [II-20] | 
1000 to 8000 | Cc1nc(N)sc1-c1csc(Nc2ccc(Br)cc2Br)n1 [II-21] | 
< 100 | Cc1nc(C)c(-c2csc(Nc3ccccn3)n2)s1 [II-22] | IC50 ([1]; 600 nmol/L 4α-PDD, Fluo3-AM, read-out: TRPV4 inhibitory activity (IC50 value)): 73 nM
1000 to 8000 | Cc1ccnc(Nc2nc(-c3sc(N)nc3C)cs2)c1 [II-23] | 
1000 to 8000 | C=CCNc1nc(-c2sc(C)nc2C)cs1 [II-24] | 

Further lines, the molecule ahead of its results:

Structure (SMILES) | IC50 [1, 4] [nM] | also measured
N=C(N)Nc1ncc(-c2csc(NC(=O)c3ccccc3)n2)s1 [Compound I-187] | 1000 to 8000 | 
Cc1nc(C)c(-c2csc(NC(=O)C3CCC3)n2)s1 [Compound I-226] |  | Ki [2]: < 100 nM; IC50 [3]: 100 to 1000 nM
c1ccc(Nc2nc(-c3cccs3)cs2)nc1 [II-9] | 1000 to 8000 | 
O=C(Nc1nc(-c2ccc(Cl)s2)cs1)c1cccc(C(F)(F)F)c1 [II-10] | 1000 to 8000 | 
O=C(Nc1nc(-c2ccc(Br)s2)cs1)c1cccc(F)c1 [II-11] | 1000 to 8000 | 
CC(C)(C)c1ccc(C(=O)Nc2nc(-c3ccc(Cl)s3)cs2)cc1 [II-12] | 1000 to 8000 | 
CC(=O)Nc1nc(-c2ccc(Br)s2)cs1 [II-13] | 1000 to 8000 | 
O=C(Nc1nc(-c2ccc(Br)s2)cs1)c1ccc(Br)s1 [II-14] | 1000 to 8000 | 
O=C(Nc1nc(-c2cccs2)cs1)C1c2ccccc2Oc2ccccc21 [II-15] | 1000 to 8000 | 
Cc1ccc(-c2csc(NC(=O)COc3ccc(Br)cc3)n2)s1 [II-16] | 100 to 1000 | 
O=C(CSc1ccccc1)Nc1nc(-c2ccc(Br)s2)cs1 [II-17] | 1000 to 8000 | 
